Series [1] is described as follows: Measuring spectral characteristics (absorption and emission maxima, extinction coefficients). Type of series: physicochemical. As to the method:
(§1) To measure spectral characteristics of some compounds with the formula I weighted portions of compounds p-NH2-BDI-BF2, p-dimethylamino-BDI-BF2, p-diethylamino-BDI-BF2, p-HOBDI-BF2, di-F-p-HOBDI-BF2, p-diethylamino-BDI-dimethylaminoethenyl-BF2 and p-HOBDI-dimethylaminoethenyl-BF2 were dissolved in water, ethanol and acetonitrile. Absorption spectra were measured on Varian Cary 100 Bio spectrophotometer, fluorescence spectra were measured on Varian Cary Eclipse scanning spectrofluorometer.
The values of absorption and emission maxima and molar extinction coefficients for examples of compounds with the formula I in the indicated solvents are listed in a Table 2. Emission peaks of the investigated compounds settle into a rather wide range from 485 nm for p-HOBDI-BF2 to 598 nm for p-diethylamino-BDI-dimethylamino-ethenyl-BF2.

Series [2] can be described thus: Quantum yield of fluorescence. It is filed as physicochemical. As to the method: as §1
The compounds p-NH2-BDI-BF2, p-HOBDI-BF2 (anionic form), di-Fp-HOBDI-BF2 (anionic form), p-diethylamino-BDI-dimethylaminoethenyl-BF2, p-HOBDI-dimethylaminoethenyl-BF2 (anionic form) have rather high quantum yields of fluorescence in water solutions.

Series [3] is described as follows: Determination of solubility in water. Type of series: physicochemical. Conditions: thermodynamic from solid. As to the method:
To determine the solubility in water of compounds an excess amount of analyzed substance was put in a known volume of a solvent and stirred for 5 hours at r.t. The obtained mixture was centrifuged, and the concentration of a compound in mother liquor was measured with spectrophotometric method on the base of molar extinction coefficients data.

Series [4] can be described thus: Chemical stability at high pH. Type of series: physicochemical. As to conditions: pH 11, 70° C., 2 hours. The text has this:
Compound of the general formula I differ from the majority of fluorescent dyes because of their high resistance to the action of different chemical factors—nucleophiles and high pH. […] It should be noted, that long-time heating in alkaline conditions may result in exchange of fluorine atoms from difluoroboryl residue to hydroxyl groups, however no significant change in absorption and fluorescence spectra is observed.

Series [5] can be described thus: Photoacidity: acidity constants of ground and excited states. Type of series: physicochemical. The text has this:
Photoacidity is an ability to dissociate with formation of H^+ ion under the action of visible light. Photoacidity is characterized by constants of acidity of ground and excited states. Förster's equation describes the relationship between acidity constants of ground and excited states and energy of transfer between the states.
For compounds of the formula I, containing phenolic OH-group, high photoacidity—an ability to dissociate with formation of H^+ ion under the action of visible light—is a distinctive feature. […] (^1)((Z)-4-(2-(difluoroboryl)-3,5-difluoro-4-hydroxybenzylidene)-1,2-dimethyl-1H-imidazole-5(4H)-one)

Series [6] is described as follows: Measuring spectral characteristics (absorption and emission maxima, extinction coefficients). Type of series: physicochemical. As to conditions: excitation at 488 nm, detection at 500-540 nm.
The subject of series [7] is cell membranes of HeLa Kyoto and HEK293 cell lines. Briefly: Staining of cell membranes and comparison of photostability with EGFP. Type of series: cell-based, human. The procedure:
Human cell cultures HeLa and HEK293 were grown in standart conditions and analyzed by wide field fluorescent and confocal laser scanning microscopy (excitation at 488 nm, detection at 500-540 nm).
The cell staining of the cells, temporarily expressing chimer protein EGFP-XRCC (nuclear localization), was carried out by p-diethylamino-BDI-BF2 in concentration 5 μM to compare fluorescent properties of the compound p-diethylamino-BDI-BF2 to the green fluorescent protein EGFP.

Values after ≈ are worked out from the molar mass of the structure shown. Values joined by “and” are separate entries in the source; they are usually repeats but may differ in a detail not shown here. Identical values can stand only once. Like-named read-outs stand apart in the source and are kept apart here.

As to `CC1=N/C(=C\c2ccc(O)cc2B(F)F)C(=O)N1C` [p-HOBDI-BF2, (Z)-4-(2-(difluoroboryl)-4-hydroxybenzylidene)-1,2-dimethyl-1H-imidazole-5(4H)-one], the Abs. peak was 521 nm in series [1] (acetonitrile, anionic form); 402 nm in series [1] (acetonitrile, neutral form); 512 nm in series [1] (ethanol, anionic form); 416 nm in series [1] (ethanol, neutral form); 485 nm in series [1] (water, anionic form); 404 nm in series [1] (water, neutral form). Further, the Emis. peak was determined as 540 nm in series [1] (acetonitrile, anionic form); 469 nm in series [1] (acetonitrile, neutral form); 532 nm in series [1] (ethanol, anionic form); 483 nm in series [1] (ethanol, neutral form); 520 nm in series [1] (water, anionic form); 485 nm in series [1] (water, neutral form). Besides, the ext. coef. was 31000 M⁻¹ cm⁻¹ in series [1] (acetonitrile, neutral form); 55000 M⁻¹ cm⁻¹ in series [1] (ethanol, anionic form); 25000 M⁻¹ cm⁻¹ in series [1] (ethanol, neutral form); 47000 M⁻¹ cm⁻¹ in series [1] (water, anionic form); 26000 M⁻¹ cm⁻¹ in series [1] (water, neutral form). Also, the “shift of emission and absorption spectra with change of more polar solvent (water) to less polar (ethanol, acetonitrile)” value in series [1] (anionic form) is reported as “bathochromic shift”; in series [1] (neutral form), “hypsochromic shift”. The “bathochromic shift of emission and absorption spectra relative to p-HOBDI” value in series [1] (different solvents) is given as 30-40 nm. For the same compound, the “Quantum yield of fluorescence” value in series [2] (acetonitrile) is 0.73; in series [2] (acetonitrile, anionic form) it was 0.73; in series [2] (water, anionic form), 0.54. This compound had a fluorescence lifetime in series [2] (acetonitrile) of 3.2 ns. The solubility (as a rule, the dissolved amount per volume that the medium holds) at 5 h in series [3] (acidic and neutral pH values, r.t.) was around 1000 µM (≈ 264 µg/mL); in series [3] (acidic and neutral values of pH), 1 µM (≈ 0.264 µg/mL). For the same compound, the “effect of incubation on absorption and emission spectra” value in series [4] is “doesn't affect significantly”. Also, the pKa (commonly the negative logarithm of the acid dissociation constant) in series [5] (excited state) worked out at 2; in series [5] (ground state, phenol group), 6.4.

Consider `CCN(CC)c1ccc(/C=C2\N=C(C)N(C)C2=O)c(B(F)F)c1` [p-diethylamino-BDI-BF2, (Z)-4-(4-(diethylamino)-2-(difluoroboryl)benzylidene)-1,2-dimethyl-1H-imidazole-5(4H)-one], for which, in series [6], the “difference in the brightness of fluorescence in water and organic phases” value is “more than 10 times”. Also, in series [1], the “shift of emission and absorption spectra with change of more polar solvent (water) to less polar (ethanol, acetonitrile)” value is on record as “hypsochromic shift”. In addition, the Abs. peak in series [1] (acetonitrile) is 493 nm; in series [1] (ethanol) it was 506 nm; in series [1] (water) it was 518 nm and 514 nm. Moreover, the Emis. peak was found to be 553 nm in series [1] (acetonitrile), 558 nm in series [1] (ethanol) and 562 nm in series [1] (water). Moreover, the ext. coef. in series [1] (acetonitrile) turned out to be 54000 M⁻¹ cm⁻¹; in series [1] (ethanol), 59000 M⁻¹ cm⁻¹; in series [1] (water), 54000 M⁻¹ cm⁻¹. Also, the “Quantum yield of fluorescence” value in series [2] (acetonitrile) is recorded as 0.34; in series [2] (ethanol), 0.22; in series [2] (in organic solvents) it was 0.2-0.35; in series [2] (water), 0.05. Also, the “accumulation in cell membranes” value in series [7] is listed as “accumulated in cell membranes”. In series [7] (1-5 μM, excitation 488 nm, detection 500-540 nm), the “fluorescence after addition to the cell medium” value is “bright yellow-green fluorescence was detected, associated with intracellular membrane structues and lipid drops”.

Values taken from patent US9133220B2, “Boron-containing 5-arylidene-3,5-dihydro-4H-imidazol-4-ones” (Evrogen Joint Stock Company, priority 2012, dated 2015).
